Among the data in ChEMBL document CHEMBL1126361, “A mechanism-based inactivator of E. coli -hydroxydecanoyl thiolester dehydrase designed to crosslink active site amino acids” (Bioorg Med Chem Lett, 1992) are Activity values, retold here.

Molecules are shown by their SMILES.

The test deals with Escherichia coli. In words: Evaluation of Beta decanoyl thioester dehydrase inactivation for the compound was determined as percent enzyme activity remaining. On the set-up: concentration or dose not given beside the values.
In turn, `CCCCCC/C=C/CC(=O)C=[N+]=[N-]` had an Activity of 100%.
For `CCCCCCC=C=CC(=O)C=[N+]=[N-]` the value was 0%.
Consider `CCCCCCC#CCC(=O)CCl`, for which the Activity worked out at 0%.
The same measure for `CCCCCC/C=C/CC(=O)CCl`: 100%; for `CCCCCCCCCC(=O)C=[N+]=[N-]`: 97%; for `CCCCCCC#CCC(=O)C=[N+]=[N-]`: 0%.
The same measure for `CCCCCCCCCC(=O)CBr`: 89%.
`CCCCCCCCCC(=O)CCl` came in with an Activity of 99%.
